Data on 9 compounds can be found in PubChem BioAssay (NCI).

The structures appear in SMILES notation. “And” between values parts separate entries of the source, which are not always exact repeats. Equal values may be shown once.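 Where inhibition never reached the appropriate level, the endpoint shown equals the highest concentration tested. Otherwise, values were interpolated linearly from a five-concentration, 48-hour dose response in 96-well plates. GI50 is the concentration that inhibits growth by half. TGI: total growth inhibition.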

Test systems include SNB-19 CNS; NCI/ADR-RES ovarian; 786-0 renal; SK-MEL-28 melanoma; KM12 colon; HOP-62 NSCLC; UO-31 renal; RPMI-8226 leukemia.
Holding throughout (assay): NCI tumour cell line growth inhibition, 48 h

Turning to `CCCc1cc(=O)n2c(C(=O)Nc3ccc(F)cc3)c(C(=O)Nc3ccc(F)cc3)sc2n1`, the GI50 was 117 µM with SNB-19 CNS; 134 µM in the test with NCI/ADR-RES ovarian; 2.64 µM with 786-0 renal; 56.5 µM with SK-MEL-28 melanoma; 111 µM in the test on KM12 colon; 2.29 µM with HOP-62 NSCLC. The GI50 was 27.6 µM with UO-31 renal and 23.9 µM in the test on RPMI-8226 leukemia. Further, the TGI with SNB-19 CNS is greater than 160 µM; in the test on NCI/ADR-RES ovarian it was greater than 160 µM; in the test on 786-0 renal it was 13.3 µM; with SK-MEL-28 melanoma, greater than 160 µM; with KM12 colon, greater than 160 µM; in the test on HOP-62 NSCLC, 33.2 µM. The TGI was found to be 101 µM in the test with UO-31 renal and 93.6 µM in the test on RPMI-8226 leukemia.
In the case of `CCCCCCSSC(=S)N(CC)CC`, the GI50 was 40.3 µM with SNB-19 CNS; 28.1 µM in the test on NCI/ADR-RES ovarian; 20.4 µM in the test on 786-0 renal; 25 µM with SK-MEL-28 melanoma; 15.2 µM in the test on KM12 colon; 34.6 µM in the test with HOP-62 NSCLC. For the same compound, the values for the GI50 in the test with UO-31 renal and in the test with RPMI-8226 leukemia were 18.1 µM and 18.8 µM, respectively. For the same compound, the TGI in the test with SNB-19 CNS was greater than 100 µM; in the test on NCI/ADR-RES ovarian it was 96.5 µM; with 786-0 renal, 39.4 µM; in the test with SK-MEL-28 melanoma, 61.4 µM; in the test on KM12 colon it was 32.1 µM; in the test on HOP-62 NSCLC, greater than 100 µM. The TGI in the test with UO-31 renal was 34.9 µM; in the test with RPMI-8226 leukemia, greater than 100 µM.
With `[N-]=[N+]=NCCCn1c2c(c3ccc([N+](=O)[O-])cc3c1=O)C(=O)c1cc(Br)ccc1-2`, the GI50 in the test on SNB-19 CNS was greater than 100 µM; with NCI/ADR-RES ovarian it was greater than 100 µM; in the test on 786-0 renal, 42.4 µM; in the test on SK-MEL-28 melanoma, greater than 100 µM; in the test with KM12 colon it was greater than 100 µM; in the test with HOP-62 NSCLC, 56.1 µM. The GI50 with UO-31 renal and in the test with RPMI-8226 leukemia was greater than 100 µM each time. For the same compound, the TGI in the test with SNB-19 CNS, in the test with NCI/ADR-RES ovarian, with 786-0 renal, in the test on SK-MEL-28 melanoma, in the test with KM12 colon and in the test with HOP-62 NSCLC was greater than 100 µM throughout. Moreover, the TGI in the test with UO-31 renal and with RPMI-8226 leukemia was greater than 100 µM in each case.
As for `C=C1C(O)C2CC(C)(CO)C(=O)C2=C(CC(C)C)C12CC2` (stereo not given), the GI50 in the test on SNB-19 CNS was greater than 100 µM; in the test with NCI/ADR-RES ovarian, greater than 100 µM; in the test with 786-0 renal, greater than 100 µM; in the test on SK-MEL-28 melanoma, greater than 100 µM; with KM12 colon, 50.6 µM; in the test with HOP-62 NSCLC it was greater than 100 µM. Moreover, the GI50 in the test with UO-31 renal was greater than 100 µM; in the test with RPMI-8226 leukemia, 29.1 µM. For the same compound, the TGI in the test on SNB-19 CNS, in the test on NCI/ADR-RES ovarian, in the test with 786-0 renal, in the test with SK-MEL-28 melanoma, with KM12 colon and in the test with HOP-62 NSCLC was greater than 100 µM throughout. Further, the TGI in the test with UO-31 renal and with RPMI-8226 leukemia was greater than 100 µM each time.
In the case of `Cn1cc(C2=C(c3c[nH]c4ccccc34)C(=O)NC2=O)c2ccccc21`, the GI50 with SNB-19 CNS was 3.31 µM; in the test with NCI/ADR-RES ovarian it was 3.33 µM; in the test with 786-0 renal, 0.446 µM; with SK-MEL-28 melanoma, 7 µM; in the test with KM12 colon, 0.586 µM; in the test on HOP-62 NSCLC, 0.585 µM. Further, the GI50 in the test on UO-31 renal is 0.334 µM; in the test on RPMI-8226 leukemia, 1.57 µM. In addition, the TGI in the test on SNB-19 CNS, in the test on NCI/ADR-RES ovarian, in the test with 786-0 renal, with SK-MEL-28 melanoma, in the test on KM12 colon and with HOP-62 NSCLC was greater than 25 µM throughout. Further, the TGI was greater than 25 µM in the test with UO-31 renal and greater than 20.8 µM in the test on RPMI-8226 leukemia.
With `CCCCCC(O)C(O)CCC[C@H](O)[C@H]1CC[C@H]([C@H]2CC[C@H]([C@H](O)CCCCCCCCCCCCC3=C[C@H](C)OC3=O)O2)O1` (stereo not given in full), the GI50 was 4.61 µM in the test on SNB-19 CNS; 2.75 µM in the test on NCI/ADR-RES ovarian; 11.1 µM in the test with 786-0 renal; 14.7 µM in the test on SK-MEL-28 melanoma; 9.78 µM in the test with KM12 colon; 15.2 µM in the test on HOP-62 NSCLC. For the same compound, in the test on UO-31 renal, the GI50 is 4.46 µM. Also, the TGI was 21.4 µM with SNB-19 CNS; 8.99 µM and 29.1 µM with NCI/ADR-RES ovarian; 30.8 µM in the test with 786-0 renal; 73 µM in the test on SK-MEL-28 melanoma; 29.1 µM in the test on KM12 colon; 32 µM with HOP-62 NSCLC. Further, the TGI with UO-31 renal was 5.67 µM and 20.5 µM; in the test with RPMI-8226 leukemia it was 4.51 µM.
Turning to `O=C(NCC(F)(F)F)Nc1cccc(-c2cnc3cc(-c4ccc(F)cc4)ccn23)c1`, the GI50 in the test on SNB-19 CNS is 2.26 µM; in the test on NCI/ADR-RES ovarian, 1.82 µM; in the test with 786-0 renal, 2.26 µM; in the test with SK-MEL-28 melanoma it was 9.16 µM; in the test with KM12 colon, 0.347 µM; in the test with HOP-62 NSCLC, 1.51 µM. The GI50 in the test with UO-31 renal is 0.575 µM; with RPMI-8226 leukemia it was 1.29 µM. Moreover, the TGI with SNB-19 CNS is greater than 100 µM; in the test on NCI/ADR-RES ovarian it was greater than 68 µM; with 786-0 renal it was greater than 100 µM; in the test with SK-MEL-28 melanoma, greater than 83 µM; in the test with KM12 colon, 31.7 µM; with HOP-62 NSCLC it was greater than 86.3 µM. For the same compound, the TGI in the test with UO-31 renal is 5.53 µM; in the test on RPMI-8226 leukemia, 17.9 µM.
With `CNCCCNc1nc2ccccc2c2c(=O)c3cc(OC)ccc3sc12`, the GI50 is 1.68 µM in the test on SNB-19 CNS; 1.82 µM with NCI/ADR-RES ovarian; 1.66 µM in the test on 786-0 renal; 1.74 µM with SK-MEL-28 melanoma; 1.83 µM with KM12 colon; 1.76 µM in the test with HOP-62 NSCLC. Moreover, the GI50 in the test with UO-31 renal is 1.42 µM; with RPMI-8226 leukemia, 2.22 µM. The TGI in the test on SNB-19 CNS is 3.18 µM; in the test on NCI/ADR-RES ovarian, 3.64 µM; in the test with 786-0 renal it was 3.17 µM; with SK-MEL-28 melanoma, 3.15 µM; in the test with KM12 colon, 3.52 µM; in the test with HOP-62 NSCLC, 3.76 µM. For the same compound, the TGI turned out to be 2.75 µM in the test on UO-31 renal and 5.16 µM in the test on RPMI-8226 leukemia.
In the case of `COC(=O)Nc1nc2ccccc2[nH]1`, the TGI was greater than 100 µM with SNB-19 CNS; 21 µM with NCI/ADR-RES ovarian; greater than 100 µM in the test on 786-0 renal; greater than 100 µM in the test on SK-MEL-28 melanoma; greater than 100 µM with KM12 colon; greater than 100 µM in the test with HOP-62 NSCLC. Further, the TGI in the test on UO-31 renal and with RPMI-8226 leukemia was greater than 100 µM each time.
